{
  "source": "paper PMC9229927",
  "about": "“New Alk(en)ylhydroxycyclohexanes with Tyrosinase Inhibition Potential from Harpephyllum caffrum Bernh. Gum Exudate” (Molecules, 2022)",
  "data": [
    {"target": "mushroom tyrosinase (Agaricus bisporus, UniProt C7FF04)", "sequence (C7FF04 1-392)": "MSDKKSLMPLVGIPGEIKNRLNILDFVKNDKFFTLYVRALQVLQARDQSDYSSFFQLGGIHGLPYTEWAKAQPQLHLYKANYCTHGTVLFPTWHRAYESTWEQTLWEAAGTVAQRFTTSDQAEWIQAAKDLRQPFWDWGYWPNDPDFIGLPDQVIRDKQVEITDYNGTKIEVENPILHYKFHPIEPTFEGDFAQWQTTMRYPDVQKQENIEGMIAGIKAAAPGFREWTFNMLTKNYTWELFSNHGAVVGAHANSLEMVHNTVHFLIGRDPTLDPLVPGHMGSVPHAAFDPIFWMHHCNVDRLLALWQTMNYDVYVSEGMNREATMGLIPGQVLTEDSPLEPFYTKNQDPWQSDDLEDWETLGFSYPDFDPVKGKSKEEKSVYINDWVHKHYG", "assay_type": "biochemical", "procedure": "Tyrosinase inhibitory potential of alk(en)ylhydroxycyclohexanes has not been previously reported.\nTyrosinase inhibitory activity was determined spectrophotometrically with slight modifications. Briefly, tested samples were dissolved in DMSO to a final concentration of 20 mg/mL. In a 24-well plate, 30 μL of the samples was added to 970 μL of potassium phosphate buffer (0.1 M, pH 6.5) and serially diluted two-fold. The mixture (70 μL) was transferred to a 96-well plate containing 30 μL of potassium phosphate buffer (0.1 M, pH 6.5) to obtain increasing concentration range of (1.56–200 μg/mL). Then, 30 μL of mushroom tyrosinase solution (333 Units/mL in phosphate buffer, pH 6.5) was added to each mixture, which was then incubated at 25 °C for 5 min. Thereafter, 110 µL of 2 mM L-tyrosine was added in all wells of a 96-well microtiter plate and further incubated for 30 min at 25 °C. […] The absorbance of the mixture was read at 492 nm using an ELISA microplate reader (VarioSkan Flash, Thermo Fisher Scientific, Vantaa, Finland). All experiments were performed in triplicates. The percent inhibition of tyrosinase was calculated as follows: Tyrosinase inhibitory (%)=(Ao−A1/Ao) × 100 where A0 is the absorbance of the negative control with the enzyme without test samples, A1 is the absorbance of the test samples and enzyme.\nData were expressed as mean ± SD from three independent experiments. The IC50 values, corresponding to the concentration required to inhibit 50% of tyrosinase activity, were calculated from a sigmoidal dose–response of a non-linear regression and R-square values representing the best fit of the model were determined by Pearson nonlinear regression using the GraphPad Prism 5 software (GraphPad Software, San Diego, CA, USA). A one-way ANOVA was performed and differences between means were separated using the Tukey multiple comparison test at p < 0.05. Experiments were performed in triplicate.", "values": [
      {"smiles": "CCCC/C=C\\CCCCCCCCCCCc1cccc(O)c1", "note": "[Compound 1, 3-heptadec-12′-Z-enyl phenol]", "tyrosinase inhibition, rating in words": "moderately active"},
      {"smiles": "CCCC/C=C\\CCCCCCCCCCC[C@@]1(O)CCC[C@@H](O)C1", "note": "[Compound 2, (1R,3R)-1,3-dihydroxy-3-[heptadec-12′(Z)-enyl]cyclohexane]", "tyrosinase inhibition, rating in words": "good inhibition"},
      {"smiles": "CCCC/C=C\\CCCCCCCCCCCC[C@@]1(O)C[C@@H](O)[C@H](O)[C@@H](O)[C@H]1O", "note": "[Compound 3, (1S,2S,3S,4S,5R)-1,2,3,4,5-pentahydroxy-5-[octadec-13′(Z)-enyl]cyclohexane]", "tyrosinase inhibition, rating in words": "good inhibition"},
      {"smiles": "CCCC/C=C\\CCCCCCCCCCC[C@]1(O)CC[C@@H](O)[C@H](O)C1", "note": "[Compound 4, (1R,2S,4R)-1,2,4-trihydroxy-4-[heptadec-12′(Z)-enyl]cyclohexane]", "tyrosinase inhibition, rating in words": "moderately active"}
    ]}
  ]
}
